A short description of data set [1]: Release of both drugs from coated layer loaded compound B-phenylephrine HCl-IRP-69 drug-resin complex (Table VII). In kind it is physicochemical. Particulars: from coated layer loaded compound B-phenylephrine HCl-IRP-69 complex. On the procedure:
The present invention also provides compositions and methods of releasing two or more pharmaceutical compositions. For example, a phenylephrine HCl and IRP-69 drug-resin complex is prepared using any of the methods disclosed herein or as disclosed in the prior art. The phenylephrine HCl and IRP-69 drug-resin complex is directly loaded with a second drug (e.g., compound B) by spray applying a solution containing compound B to the phenylephrine HCl-IRP-69 drug-resin complex. This layer loaded complex (compound B-phenylephrine HCl-IRP-69 drug-resin complex) is then coated as previously described.

Data set [2] in a line: Release profile of phenylephrine hydrochloride from drug-resin complex with a 25% coating (Table V). The class given is physicochemical.

The structures appear in SMILES notation. Structures can show the parent of a compound that is named as a salt.

As to `CNC[C@H](O)c1cccc(O)c1` [Phenylephrine Hydrochloride], the Released in data set [1] (0.5 hour) is listed as 48%; in data set [1] (1.0 hour) it was 55%; in data set [1] (1.5 hour), 76%; in data set [1] (2.0 hour) it was 81%; in data set [1] (4.0 hour) it was 92%. The “% Released” value is reported as 25.5% in data set [2] (0.5 hr); 30.5% in data set [2] (1.0 hr); 61.0% in data set [2] (3.0 hr); 93.0% in data set [2] (6.0 hr); 97.0% in data set [2] (12.0 hr).
